Active and inactive are the calls of the source. The rule behind the calls is not given here.
How the values were obtained:
[1] = Toxicity in myl7:EGFP transgenic zebra fish embryo assessed as reduction in survival rate dosed at 24 hpf and measured 96 hpf; type: organism-based, Danio rerio; conditions: zebrafish, in vivo
Danio rerio [2] = assay: Cytoprotection in myl7:EGFP transgenic zebra fish embryo assessed as reduction in DOX-induced lethal toxicity by measuring LC50 dosed at 24 hpf and measured 96 hpf (reference value: 51.56 uM); type: functional
[3] = Toxicity in myl7:EGFP transgenic zebra fish embryo assessed as reduction in survival rate at 25 to 100 uM dosed at 24 hpf and measured 96 hpf; type: organism-based, Danio rerio; conditions: zebrafish, in vivo
Danio rerio [4] = assay: Cardioprotective activity in myl7:EGFP transgenic zebra fish embryo assessed as decrease in DOX-induced morphological changes at 100 uM dosed at 24 hpf and measured 72 hpf by fluorescent microscopy; type: functional, organism-based
Danio rerio [5] = assay: Cardioprotective activity in myl7:EGFP transgenic zebra fish embryo assessed as recovery of in DOX-induced heart rate impairment at 100 uM dosed at 24 hpf and measured 72 hpf by fluorescent microscopy; type: functional, organism-based
Danio rerio [6] = assay: Cardioprotective activity in myl7:EGFP transgenic zebra fish embryo assessed as recovery of in DOX-induced shortening fraction at 100 uM dosed at 24 hpf and measured 72 hpf by fluorescent microscopy; type: functional, organism-based
Danio rerio [7] = assay: Cardioprotective activity in myl7:EGFP transgenic zebra fish embryo assessed as decrease in DOX-induced pericardial edema at 100 uM dosed at 24 hpf and measured 72 hpf by fluorescent microscopy; type: functional, organism-based
Danio rerio [8] = assay: Cardioprotective activity in myl7:EGFP transgenic zebra fish embryo assessed as decrease in DOX-induced cardiac dysfunction at 100 uM dosed at 24 hpf and measured 72 hpf by fluorescent microscopy; type: functional, organism-based

In the case of `C[C@@]12CC[C@@H]3[C@@](CC[C@H]4[C@@]3(C)CCC[C@@]4(C)C(=O)OCCCCCC(=O)O)(C[C@H]1O)C2`, the LD [1] is reported as 50 to 100 µM and the Activity (Danio rerio [2]) is reported as “inactive”.
For `C[C@]12CC[C@H]3[C@]4(C)CCC[C@@](C)(C(=O)O)[C@H]4CC[C@@]3(C1)[C@H](CO)[C@H]2O`, the Activity [3] was “Non-Toxic”, the Activity (Danio rerio [4]) was “Active” and the Activity (Danio rerio [5]) was “Active”. The Activity (Danio rerio [6]) was “Active”, the Activity (Danio rerio [7]) was “Active” and the Activity (Danio rerio [8]) was “Active”. The LC50 (Danio rerio [2]) was 68.5 µM.
For `C[C@]12CC[C@H]3[C@]4(C)CCC[C@@](C)(C(=O)O)[C@H]4CC[C@@]3(C1)[C@H](C=O)[C@H]2O`, the Activity [3] was “Non-Toxic”, the Activity (Danio rerio [4]) was “Active” and the Activity (Danio rerio [5]) was “Active”. The Activity (Danio rerio [6]) was “Active”, the Activity (Danio rerio [7]) was “Active” and the Activity (Danio rerio [8]) was “Active”. It also gave an LC50 (Danio rerio [2]) of 92.61 µM.
With `C[C@@]12CC[C@@H]3[C@@](CC[C@H]4[C@@]3(C)CCC[C@@]4(C)C(=O)OCCO)(C[C@H]1O)C2` the Activity (Danio rerio [2]) was “inactive”.
With `C[C@@]12CC[C@@H]3[C@@](CC[C@H]4[C@@]3(C)CCC[C@@]4(C)C(=O)OCCCCCCO)(C[C@H]1O)C2` the LD [1] was 50 to 100 µM and the Activity (Danio rerio [2]) was “inactive”.
For `C[C@]12CC[C@H]3[C@]4(C)CCC[C@@](C)(C(=O)O)[C@H]4CC[C@@]3(C1)[C@H](C=O)C2=O`, the Activity [3] was “Non-Toxic”, the Activity (Danio rerio [4]) was “inactive” and the Activity (Danio rerio [5]) was “inactive”. For the same molecule, the Activity (Danio rerio [6]) was “inactive”, the Activity (Danio rerio [7]) was “inactive” and the Activity (Danio rerio [8]) was “inactive”.
For `C[C@@]12CC[C@@H]3[C@@](CC[C@H]4[C@@]3(C)CCC[C@@]4(C)C(=O)OCCCCCCCC(=O)O)(C[C@H]1O)C2`, the LD [1] was 50 to 100 µM and the Activity (Danio rerio [2]) was “inactive”.
With `C[C@@]12CC[C@@H]3[C@@](CC[C@H]4[C@@]3(C)CCC[C@@]4(C)C(=O)OCCCCCCCCO)(C[C@H]1O)C2` the LD [1] was 50 to 100 µM and the Activity (Danio rerio [2]) was “inactive”.
For `C[C@]12CC[C@H]3[C@]4(C)CCC[C@@](C)(C(=O)O)[C@H]4CC[C@@]3(C1)[C@H](C(=O)O)[C@H]2O`, the Activity [3] was “Non-Toxic”, the Activity (Danio rerio [4]) was “Active” and the Activity (Danio rerio [5]) was “Active”. The Activity (Danio rerio [6]) was “Active”, the Activity (Danio rerio [7]) was “Active” and the Activity (Danio rerio [8]) was “Active”. The LC50 (Danio rerio [2]) was 66.62 µM.
In the case of `C[C@]12CC[C@H]3[C@]4(C)CCC[C@@](C)(C(=O)O)[C@H]4CC[C@@]3(C1)[C@H](CO)C2=O`, the Activity [3] is reported as “Non-Toxic”, the Activity (Danio rerio [4]) is reported as “inactive” and the Activity (Danio rerio [5]) is reported as “inactive”. The Activity (Danio rerio [6]) was “inactive”, the Activity (Danio rerio [7]) was “inactive” and the Activity (Danio rerio [8]) was “inactive”. It also gave an LC50 (Danio rerio [2]) of 74.83 µM.
